According to patent publication US12239644B2, “Composition for prevention or treatment of macular degeneration” (KYUNGPOOK NATIONAL UNIVERSITY INDUSTRY-ACADEMIC COOPERATION …, priority 2018, dated 2025):
Like-named read-outs stand apart in the source and are kept apart here.

Tests used:
HIF-1α = conditions: ARPE-19 cells, 1% oxygen 4-6 hours, fursultiamine-HCl 20, 50, 100 μM
Method: After hypoxic exposure for 4-6 hours, the cells were lysed with a protein lysis buffer and protein isolation from the lysate was conducted.

[1] = system: choroidal vascular endothelial cells; conditions: C57BL/6J choroid/sclera in Matrigel, day 3 to 5
Method: Effects of fursultiamine on the growth of choroidal vascular endothelial cells were evaluated by the ex vivo mouse choroid sprouting assay for age-related macular degeneration.
The eyeball was resected from C57BL/6J mice (Jackson Laboratory) at 3 or 4 weeks of age and the choroid/sclera was separated therefrom and sectioned into a size of 1 mm×1 mm. After being thawed on ice, Matrigel (Becton Dickinson, BD matrigel) in a liquid state was added in an amount of 300 μl to each well of 24-well plates and one of the cut choroid/sclera segments was seeded in the Matrigel in each well. Then, Matrigel was solidified for 10 min in a 37° C. incubator before adding 500 μl of an EGM medium (Lonza, Endothelial Growth Medium) to each well.
Subsequently, the growth of vascular endothelial cells was induced in a 37° C. incubator. The medium was exchanged every two days with a fresh one containing 20 μM or 50 μM fursultiamine-HCl. The growth of vascular endothelial cells from the choroid was monitored from the day of seeding the choroid/sclera and observed on day 3 to 5. The sprouting distances were measured at a total of 4 sites using the ImageJ software and averaged. Statistical analyses were performed with the Prism program, with statistical significance defined as p<0.05.

VEGF = conditions: ARPE-19 medium
Method: ARPE-19 cells were seeded into 60-mm dishes and incubated overnight to adhere to the dishes. On the next day, the medium was replaced with serum-free medium. The cells were treated with fursultiamine-HCl (Toronto research chemical, F865230) or a vehicle (DMSO, Sigma-Aldrich) at the specific concentrations of 0 μM, 50 μM, and 100 μM and then exposed to 1% oxygen condition in a hypoxic chamber (INVIVO2 400, Baker). After hypoxic exposure for 4-6 hours, the cells were lysed with a protein lysis buffer and protein isolation from the lysate was conducted.
After 12 hours later, the medium was recovered and secreted levels of VEGF in the medium were measured using human VEGF enzyme linked immunoassay (ELISA) (R&D systems). Quantitation methods and concentration calculations were conducted according to the manufacturer's manual. Statistical analyses were performed using the Prism program, with statistical significance defined as p<0.05.

laser-induced CNV models = conditions: C57BL/6J mice, 50 mg/kg orally for 8 days, one week after laser
Method: (§1) Statistical analyses were performed using the Prism program, with statistical significance defined as p<0.05.

[2] = system: laser-induced choroid neovascularization (CNV) models; conditions: C57BL/6J mice, 50 mg/kg orally for 8 days, one week after laser
Method: as §1

ARPE-19 cells = conditions: ARPE-19, LPS 10 ug/ml + fursultiamine 50 uM (24 h)
Method: To be specific, ARPE-19 cells were seeded onto 96-well XF plates, with the exchange of a fresh medium every two days. On day 5 after cell seeding, the cells were treated with 10 μg/ml LPS (lipopolysaccharides, Sigma-Aldrich) and then with 50 μM fursultiamine on day 6. On day 7, the medium was exchanged with an XF medium (Seahorse XF DMEM medium, Agilent) and the plates were left for 30 min at 37° C. in a non-CO2 incubator.
In order to assess mitochondrial spare capacity, the following mitochondrial electron transport inhibitors and respiratory uncouplers were used in corresponding steps: oligomycin (2 μM), FCCP (0.5 μM), rotenone (2 μM), and antimycin A (2 μM).
The oxygen consumption rate (OCR) was measured using an XFe96 analyzer (Agilent) according to the manufacturer's manual.

CC(=C(CCO)SSCC1CCCO1)N(C=O)Cc1cnc(C)nc1N (stereo in doubt) [Fursultiamine, thiamine tetrahydrofurfuryl disulfide]
expression of HIF-1α upregulated in the hypoxic condition (HIF-1α): reduced | Sprouting range (pixels) ([1]; Fursultiamine 20 uM): 229.926 ± 28.348 pixels | Sprouting range (pixels) ([1]; Fursultiamine 50 uM): 126.713 ± 22.810 pixels | VEGF (VEGF; 1% O2, Fursultiamine 50 μM): 163.4 ± 7.4 pg/mL | VEGF (VEGF; 1% O2, Fursultiamine 100 μM): 47.4 ± 4.6 pg/mL | Lesion size (10^−3mm^2) (laser-induced CNV models): 15.7 ± 1.0 10^−3mm^2 | vascular leakage for the late phase [2]: decreased | OCR (%) (mitochondrial spare capacity) (ARPE-19 cells): 189.438 ± 21.392%
